Results: patent publication US8153809B2, “Dihydropyridone ureas as P2X7 modulators” (Roche Palo Alto LLC, priority 2008, dated 2012)

Each compound was assayed against T1, P2X7 (UniProt Q99572) (assay: pIC50 values for P2X7 (Table 1)).
T1 sequence (Q99572 1-595): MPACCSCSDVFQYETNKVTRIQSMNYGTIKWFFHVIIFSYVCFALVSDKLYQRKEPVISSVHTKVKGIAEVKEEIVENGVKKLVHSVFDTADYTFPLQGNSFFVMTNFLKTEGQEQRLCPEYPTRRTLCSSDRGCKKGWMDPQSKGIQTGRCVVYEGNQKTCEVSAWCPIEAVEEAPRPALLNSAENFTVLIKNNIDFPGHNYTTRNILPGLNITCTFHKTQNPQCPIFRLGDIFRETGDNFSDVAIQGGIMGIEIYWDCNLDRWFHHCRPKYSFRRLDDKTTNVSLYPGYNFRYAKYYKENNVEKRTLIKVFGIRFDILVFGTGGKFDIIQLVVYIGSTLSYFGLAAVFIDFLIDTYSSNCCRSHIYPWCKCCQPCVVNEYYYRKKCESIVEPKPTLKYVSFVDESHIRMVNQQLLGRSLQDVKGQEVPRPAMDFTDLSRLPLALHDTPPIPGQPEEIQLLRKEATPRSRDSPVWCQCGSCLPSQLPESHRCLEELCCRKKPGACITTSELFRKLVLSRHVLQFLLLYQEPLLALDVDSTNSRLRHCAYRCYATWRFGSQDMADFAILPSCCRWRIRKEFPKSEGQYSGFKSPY
Format: cell-based
How it was run: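 Fluo-3-loaded 1321N1 cells expressing human P2X7 or HEK293 cells expressing rat P2X7, preincubated 20 min at room temperature with antagonist in HBSS/Hepes/probenecid buffer with 2 mM CaCl2. BzATP agonist at 100 μM final (human) or 5 μM final (rat); fluorescence read 5 min, peak normalized to 5 μM ionomycin response.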

Q: `Cn1ccc2cc(NC(=O)N3C=CC(=O)C[C@H]3c3ccc(F)cc3)ccc21` [Compound 116, (S)-2-(4-Fluoro-phenyl)-4-oxo-3,4-dihydro-2H-pyridine-1-carboxylic acid (1-methyl-1H-indol-5-yl)-amide] was tested. Which pIC50 did it give?
A: The pIC50 was 7.405.

Q: `Cc1cc(Br)c(NC(=O)N2C=CC(=O)C[C@H]2c2ccc(F)cc2)cc1C#N` [Compound 48, (S)-2-(4-Fluoro-phenyl)-4-oxo-3,4-dihydro-2H-pyridine-1-carboxylic acid (2-bromo-5-cyano-4-methyl-phenyl)-amide] was tested. Which pIC50 did it give?
A: The pIC50 was 6.84.

Q: How did the pIC50 turn out when `COc1cccc(NC(=O)N2C=CC(=O)CC2c2ccc(F)cc2)c1OC` (stereo not shown) [Compound 110, 2-(4-Fluoro-phenyl)-4-oxo-3,4-dihydro-2H-pyridine-1-carboxylic acid (2,3-dimethoxy-phenyl)-amide] was run?
A: Its pIC50 is 6.89.

Q: `Cc1ccc(C)c(NC(=O)N2C=CC(=O)C[C@H]2c2ccc(F)cc2)c1` [Compound 95, (S)-2-(4-Fluoro-phenyl)-4-oxo-3,4-dihydro-2H-pyridine-1-carboxylic acid (2,5-dimethyl-phenyl)-amide] was tested. Which pIC50 did it give?
A: Its pIC50 is 7.9775.

Q: How did the pIC50 turn out when `COc1cc(NC(=O)N2C=CC(=O)C[C@H]2c2ccccc2)c(Br)cc1Cl` [Compound 4, (S)-4-Oxo-2-phenyl-3,4-dihydro-2H-pyridine-1-carboxylic acid (2-bromo-4-chloro-5-methoxy-phenyl)-amide] was run?
A: The pIC50 was 7.476.

Q: For `COc1cc(NC(=O)N2C=CC(=O)C[C@H]2c2ccc(F)cc2)c(Br)cc1C(F)(F)F` [Compound 8, (S)-2-(4-Fluoro-phenyl)-4-oxo-3,4-dihydro-2H-pyridine-1-carboxylic acid (2-bromo-5-methoxy-4-trifluoromethyl-phenyl)-amide], which pIC50 is on record?
A: The pIC50 was 6.09.

Q: `COc1cc(NC(=O)N2C=CC(=O)C[C@H]2c2ccc(F)cc2)c(Br)cc1C(N)=O` [Compound 60, (S)-2-(4-Fluoro-phenyl)-4-oxo-3,4-dihydro-2H-pyridine-1-carboxylic acid (2-bromo-4-carbamoyl-5-methoxy-phenyl)-amide] was tested. Which pIC50 did it give?
A: Its pIC50 is 5.78.

Q: `CC(=O)c1cc(NC(=O)N2C=CC(=O)C[C@H]2c2ccc(F)cc2)c(Br)cc1Cl` [Compound 51, (S)-2-(4-Fluoro-phenyl)-4-oxo-3,4-dihydro-2H-pyridine-1-carboxylic acid (5-acetyl-2-bromo-4-chloro-phenyl)-amide] was tested. Which pIC50 did it give?
A: The pIC50 was 6.857.

Q: How did the pIC50 turn out when `Cn1ccc2ccc(NC(=O)N3C=CC(=O)CC3c3ccc(F)cc3)cc21` (stereo not shown) [Compound 52, 2-(4-Fluoro-phenyl)-4-oxo-3,4-dihydro-2H-pyridine-1-carboxylic acid (1-methyl-1H-indol-6-yl)-amide] was run?
A: The pIC50 was 7.065.

Q: How did the pIC50 turn out when `Cc1cccc(NC(=O)N2C=CC(=O)C[C@H]2c2ccc(F)cc2)c1C` [Compound 97, (S)-2-(4-Fluoro-phenyl)-4-oxo-3,4-dihydro-2H-pyridine-1-carboxylic acid (2,3-dimethyl-phenyl)-amide] was run?
A: Its pIC50 is 7.74.

Q: `COc1cc(NC(=O)N2C=CC(=O)C[C@H]2c2cccc(F)c2)ccc1C` [Compound 70, (S)-2-(3-Fluoro-phenyl)-4-oxo-3,4-dihydro-2H-pyridine-1-carboxylic acid (3-methoxy-4-methyl-phenyl)-amide] was tested. Which pIC50 did it give?
A: Its pIC50 is 6.84.

Q: How did the pIC50 turn out when `Cc1cc(Cl)c(CCO)cc1NC(=O)N1C=CC(=O)C[C@H]1c1ccc(F)cc1` [Compound 133, (S)-2-(4-Fluoro-phenyl)-4-oxo-3,4-dihydro-2H-pyridine-1-carboxylic acid [4-chloro-5-(2-hydroxy-ethyl)-2-methyl-phenyl]-amide] was run?
A: Its pIC50 is 8.06.

Q: With `COC(=O)c1cccc(NC(=O)N2C=CC(=O)CC2c2ccc(F)cc2)c1C` (stereo not shown) [Compound 66, 3-{[2-(4-Fluoro-phenyl)-4-oxo-3,4-dihydro-2H-pyridine-1-carbonyl]-amino}-2-methyl benzoic acid methyl ester] as the compound, how does the pIC50 read?
A: Its pIC50 is 6.8.

Q: For `COc1cc(NC(=O)N2C=CC(=O)CC2c2ccc(F)cc2)cc(OC)c1OC` (stereo not shown) [Compound 80, 2-(4-Fluoro-phenyl)-4-oxo-3,4-dihydro-2H-pyridine-1-carboxylic acid (3,4,5-trimethoxy-phenyl)-amide], which pIC50 is on record?
A: The pIC50 was 5.

Q: With `COC(=O)c1cc(Br)c(NC(=O)N2C=CC(=O)CC2c2ccc(F)cc2)cc1OC` (stereo not shown) [Compound 22, 5-Bromo-4-{[2-(4-fluoro-phenyl)-4-oxo-3,4-dihydro-2H-pyridine-1-carbonyl]-amino}-2-methoxy-benzoic acid methyl ester] as the compound, how does the pIC50 read?
A: Its pIC50 is 7.15.

Q: `Cc1cc(F)c(F)cc1NC(=O)N1C=CC(=O)C[C@H]1c1ccc(F)cc1` [Compound 155, (S)-2-(4-Fluoro-phenyl)-4-oxo-3,4-dihydro-2H-pyridine-1-carboxylic acid (4,5-difluoro-2-methyl-phenyl)-amide] was tested. Which pIC50 did it give?
A: Its pIC50 is 7.12.

Q: Which pIC50 does the source give for `CNC(=O)c1cccc(NC(=O)N2C=CC(=O)C[C@H]2c2ccc(F)cc2)c1C` [Compound 141, (S)-2-(4-Fluoro-phenyl)-4-oxo-3,4-dihydro-2H-pyridine-1-carboxylic acid (2-methyl-3-methylcarbamoyl-phenyl)-amide] here?
A: Its pIC50 is 6.185.

Q: Which pIC50 does the source give for `Cc1cc2c(cc1NC(=O)N1C=CC(=O)C[C@H]1c1ccc(F)cc1)OCCN2C` [Compound 143, (S)-2-(4-Fluoro-phenyl)-4-oxo-3,4-dihydro-2H-pyridine-1-carboxylic acid (4,6-dimethyl-3,4-dihydro-2H-benzo[1,4]oxazin-7-yl)-amide] here?
A: Its pIC50 is 7.825.

Q: Which pIC50 does the source give for `COc1cc(NC(=O)N2C=CC(=O)C[C@H]2c2ccc(F)cc2)c(Br)cc1F` [Compound 6, (S)-2-(4-Fluoro-phenyl)-4-oxo-3,4-dihydro-2H-pyridine-1-carboxylic acid (2-bromo-4-fluoro-5-methoxy-phenyl)-amide] here?
A: The pIC50 was 7.5.

Q: For `O=C1C=CN(C(=O)Nc2cc3[nH]c(=O)[nH]c3cc2Br)C(c2ccc(F)cc2)C1` (stereo not shown) [Compound 112, 2-(4-Fluoro-phenyl)-4-oxo-3,4-dihydro-2H-pyridine-1-carboxylic acid (6-bromo-2-oxo-2,3-dihydro-1H-benzoimidazol-5-yl)-amide], which pIC50 is on record?
A: Its pIC50 is 5.93.

Q: With `Cc1cc(Br)c(NC(=O)N2C=CC(=O)C[C@H]2c2ccc(F)cc2)cc1C(=O)OC(C)(C)C` [Compound 77, 4-Bromo-5-{[(S)-2-(4-fluoro-phenyl)-4-oxo-3,4-dihydro-2H-pyridine-1-carbonyl]amino}-2-methyl-benzoic acid tert-butyl ester] as the compound, how does the pIC50 read?
A: Its pIC50 is 6.67.

Q: Which pIC50 does the source give for `COc1cc(NC(=O)N2C=CC(=O)C[C@H]2c2ccc(F)c(F)c2)c(Br)cc1C` [Compound 81, (S)-2-(3,4-Difluoro-phenyl)-4-oxo-3,4-dihydro-2H-pyridine-1-carboxylic acid (2-bromo-5-methoxy-4-methyl-phenyl)-amide] here?
A: The pIC50 was 7.54.

Q: For `COc1cc(NC(=O)N2C=CC(=O)C[C@H]2c2ccc(F)cc2)c(Br)cc1C#N` [Compound 63, (S)-2-(4-Fluoro-phenyl)-4-oxo-3,4-dihydro-2H-pyridine-1-carboxylic acid (2-bromo-4-cyano-5-methoxy-phenyl)-amide], which pIC50 is on record?
A: Its pIC50 is 6.74.

Q: `Cn1ccc2ccc(NC(=O)N3C=CC(=O)C[C@H]3c3ccc(F)cc3)cc21` [Compound 101, (S)-2-(4-Fluoro-phenyl)-4-oxo-3,4-dihydro-2H-pyridine-1-carboxylic acid (1-methyl-1H-indol-6-yl)-amide] was tested. Which pIC50 did it give?
A: The pIC50 was 7.57.

Q: How did the pIC50 turn out when `COC(=O)c1cccc(NC(=O)N2C=CC(=O)C[C@H]2c2ccc(F)cc2)c1C` [Compound 93, 3-{[(S)-2-(4-Fluoro-phenyl)-4-oxo-3,4-dihydro-2H-pyridine-1-carbonyl]-amino}-2-methyl-benzoic acid methyl ester] was run?
A: Its pIC50 is 7.44.

Q: `Cc1ccc(NC(=O)N2C=CC(=O)C[C@H]2c2ccc(F)cc2)cc1` [Compound 137, (S)-2-(4-Fluoro-phenyl)-4-oxo-3,4-dihydro-2H-pyridine-1-carboxylic acid p-tolylamide] was tested. Which pIC50 did it give?
A: The pIC50 was 6.57.

Q: `COc1ccc(S(C)(=O)=O)cc1NC(=O)N1C=CC(=O)CC1c1ccc(F)cc1` (stereo not shown) [Compound 56, 2-(4-Fluoro-phenyl)-4-oxo-3,4-dihydro-2H-pyridine-1-carboxylic acid (5-methanesulfonyl-2-methoxy-phenyl)-amide] was tested. Which pIC50 did it give?
A: Its pIC50 is 5.11.

Q: With `COc1cc(Br)c(NC(=O)N2C=CC(=O)C[C@H]2c2ccc(F)cc2)cc1OC` [Compound 3, (S)-2-(4-Fluoro-phenyl)-4-oxo-3,4-dihydro-2H-pyridine-1-carboxylic acid (2-bromo-4,5-dimethoxy-phenyl)-amide] as the compound, how does the pIC50 read?
A: Its pIC50 is 8.055.

Q: With `COc1cc(NC(=O)N2C=CC(=O)C[C@H]2c2ccc(F)cc2)ccc1C` [Compound 45, (S)-2-(4-Fluoro-phenyl)-4-oxo-3,4-dihydro-2H-pyridine-1-carboxylic acid (3-methoxy-4-methyl-phenyl)-amide] as the compound, how does the pIC50 read?
A: The pIC50 was 6.737.

Q: Which pIC50 does the source give for `Cc1c(CCO)cccc1NC(=O)N1C=CC(=O)C[C@H]1c1ccc(F)cc1` [Compound 150, (S)-2-(4-Fluoro-phenyl)-4-oxo-3,4-dihydro-2H-pyridine-1-carboxylic acid [3-(2-hydroxy-ethyl)-2-methyl-phenyl]-amide] here?
A: Its pIC50 is 7.835.

Q: With `Cc1cc(Cl)c(CN2CCOCC2)cc1NC(=O)N1C=CC(=O)C[C@H]1c1ccc(F)cc1` [Compound 129, (S)-2-(4-Fluoro-phenyl)-4-oxo-3,4-dihydro-2H-pyridine-1-carboxylic acid (4-chloro-2-methyl-5-morpholin-4-ylmethyl-phenyl)-amide] as the compound, how does the pIC50 read?
A: The pIC50 was 6.945.
